From patent US10344004B2, “Inhibitor of the mutated isocitrate dehydrogenase IDH1 R132H” (Bayer Pharma Aktiengesellschaft, priority 2015, dated 2019)

Assay: Relative oral bioavailability (FRel experiment) in Wistar rats
Format: in vivo
Procedure: The relative bioavailability was determined by studies in Wistar rats.
Compound A was firstly administered orally in the form of a solution. For this purpose, the active ingredient was dissolved in a mixture of 80% polyethylene glycol having an average molecular weight of 400 (PEG400) and 20% water. The active ingredient solution is the reference point for determining the relative bioavailability (formulation A1).
Compound A was also administered orally in the form of a tylose suspension (formulation A2).
Compound B was likewise administered orally in the form of a tylose suspension (formulation B).
To prepare a 0.5% aqueous tylose suspension (w/v), tylose was stirred and swelled for about 12 hours in pure water, whereupon a viscous mixture was formed. Compound A and compound B were each ground into the viscous mixture, whereupon the corresponding tylose suspensions were formed (formulation A2 and formulation B).
FIGS. 1a, 1b and 1c show the plasma concentrations of the active ingredient 3-(2-{[4-(trifluoromethoxy)phenyl]amino}-1-[(1R,5R)-3,3,5-trimethylcyclohexyl]-1H-benzimidazol-5-yl)propanoic acid (active ingredient API) after oral administration of compound A in the form of a solution (formulation A1, FIG. 1a), after oral administration of compound A in the form of a suspension (formulation A2, FIG. 1b) and after oral administration of compound B in the form of a suspension (formulation B, FIG. 1c).
For formulation A1, 5 mL/kg body weight were administered. This corresponded to an amount of active ingredient API of 10 mg/kg.
For formulation A2, 5 mL/kg body weight were administered. This corresponded to an amount of active ingredient API of 10 mg/kg.
For formulation B, 2 mL/kg body weight were administered. […]
Plasma concentrations were determined by collecting about 0.4 mL of blood in each case via an indwelling venous catheter. […] The plasma samples were analyzed by LC/MS/MS with respect to the active ingredient 3-(2-{[4-(trifluoromethoxy)phenyl]amino}-1-[(1R,5R)-3,3,5-trimethylcyclohexyl]-1H-benzimidazol-5-yl)propanoic acid.

Row | Molecule | bioavailability in the FRel experiment (tylose suspension (formulation B), 10.6 mg/kg API, relative to PEG400/water solution of compound A (formulation A1)) | bioavailability compared with the pure free acid (tylose suspensions, comparison in words) | bioavailability (rat, plasma, tylose suspension (formulation A2), 10 mg/kg API, relative to PEG400/water solution (formulation A1))
1 | (2E)-but-2-enedioic acid-3-(2-{[4-(trifluoromethoxy)phenyl]amino}-1-[(1R,5R)-3,3,5-trimethylcyclohexyl]-1H-benzimidazol-5-yl)propanoic acid (1:4) [Compound B] | 110% | distinctly higher bioavailability | –
2 | C[C@H]1C[C@@H](n2c(Nc3ccc(OC(F)(F)F)cc3)nc3cc(CCC(=O)O)ccc32)CC(C)(C)C1 [Compound A, 3-(2-{[4-(trifluoromethoxy)phenyl]amino}-1-[(1R,5R)-3,3,5-trimethylcyclohexyl]-1H-benzimidazol-5-yl)propanoic acid] | – | – | 25%
